# Source: ChEMBL document CHEMBL5505986, “Design, synthesis and biological evaluation of thiazolyl-halogenated pyrroles or pyrazoles as novel antibacterial and antibiofilm agents” (Eur J Med Chem, 2024)
# Activity calls are given as the source filed them. The calls are words filed in the database; no cut-off is given here.
# Key:
# [1] = system: Streptococcus pyogenes; assay: Antibacterial activity against Streptococcus pyogenes ATCC 12204 assessed as reduction in bacterial growth incubated for 24 hrs by broth microdilution method; assay type: functional
# [2] = system: Staphylococcus aureus; assay: Antibiofilm activity against vancomycin-intermediate resistant Staphylococcus aureus ATCC 700699/Mu50 at sub-MIC doses measured after 24 hrs by crystal violet staining based analysis; assay type: functional
# [3] = system: Enterococcus faecium; assay: Antibiofilm activity against Enterococcus faecium clinical isolate at 1/8 times MIC measured after 24 hrs by crystal violet staining based analysis; assay type: functional, organism-based
# [4] = system: Pseudomonas aeruginosa; assay: Antibiofilm activity against Pseudomonas aeruginosa ATCC 47085 at sub-MIC doses measured after 24 hrs by crystal violet staining based analysis; assay type: functional
# [5] = system: Pseudomonas aeruginosa; assay: Antibacterial activity against Pseudomonas aeruginosa ATCC 47085 assessed as reduction in bacterial growth incubated for 24 hrs by broth microdilution method; assay type: functional
# [6] = system: Enterococcus faecium; assay: Antibacterial activity against clinical isolate Enterococcus faecium assessed as reduction in bacterial growth incubated for 24 hrs by broth microdilution method; assay type: functional
# [7] = system: Klebsiella pneumoniae; assay: Antibacterial activity against Klebsiella pneumoniae ATCC 13883 assessed as reduction in bacterial growth incubated for 24 hrs by broth microdilution method; assay type: functional
# [8] = system: Staphylococcus aureus; assay: Antibiofilm activity against vancomycin-intermediate resistant Staphylococcus aureus ATCC 700699/Mu50 at 1/8 time MIC measured after 24 hrs by crystal violet staining based analysis; assay type: functional, organism-based
# [9] = system: Enterococcus faecium; assay: Antibiofilm activity against Enterococcus faecium clinical isolate at sub-MIC doses measured after 24 hrs by crystal violet staining based analysis; assay type: functional
# [10] = system: Pseudomonas aeruginosa; assay: Antibiofilm activity against Pseudomonas aeruginosa ATCC 47085 at 8 to 16 ug/ml measured after 24 hrs by crystal violet staining based analysis; assay type: functional, organism-based; conditions: dose 8-16 µg/ml
# [11] = system: Staphylococcus aureus; assay: Antibacterial activity against vancomycin-intermediate resistant Staphylococcus aureus ATCC 700699/Mu50 assessed as reduction in bacterial growth incubated for 24 hrs by broth microdilution method; assay type: functional
# [12] = system: Acinetobacter baumannii; assay: Antibacterial activity against Acinetobacter baumannii ATCC 19606 assessed as reduction in bacterial growth incubated for 24 hrs by broth microdilution method; assay type: functional
# [13] = system: Staphylococcus aureus; assay: Antibacterial activity against community associated methicillin-resistant Staphylococcus aureus USA400 assessed as reduction in bacterial growth incubated for 24 hrs by broth microdilution method; assay type: functional
# [14] = system: Enterococcus faecium; assay: Antibacterial activity against Enterococcus faecium Efm-HS06188 assessed as reduction in bacterial growth incubated for 24 hrs by broth microdilution method; assay type: functional
# [15] = system: Enterococcus faecium; assay: Antibacterial activity against Enterococcus faecium Efm-HS0649 assessed as reduction in bacterial growth incubated for 24 hrs by broth microdilution method; assay type: functional
# [16] = system: NCI-H1299; assay: Cytotoxicity against human NCI-H1299 cells measured after 72 hrs by SRB assay; assay type: functional, cell-based; conditions: NCI-H1299, 72 h
# [17] = Toxicity in Galleria mellonella larvae assessed as reduction in animal survival at 20 mg/kg; assay type: organism-based; conditions: in vivo, 80 h
# [18] = Metabolic stability in mouse liver microsomes assessed as metabolic bioavailability at 0.1 uM preincubated for 10 mins followed by NADPH addition and measured upto 60 mins by LC-MS/MS analysis; assay type: ADME, Microsome; conditions: time < 70 min
# [19] = Metabolic stability in human liver microsomes assessed as metabolic bioavailability at 0.1 uM preincubated for 10 mins followed by NADPH addition and measured upto 60 mins by LC-MS/MS analysis; assay type: ADME, Microsome; conditions: time < 70 min
# [20] = Metabolic stability in dog liver microsomes assessed as metabolic bioavailability at 0.1 uM preincubated for 10 mins followed by NADPH addition and measured upto 60 mins by LC-MS/MS analysis; assay type: ADME, Canis lupus familiaris, Microsome; conditions: time < 70 min
# [21] = Metabolic stability in monkey liver microsomes assessed as metabolic bioavailability at 0.1 uM preincubated for 10 mins followed by NADPH addition and measured upto 60 mins by LC-MS/MS analysis; assay type: ADME, Macaca mulatta, Microsome; conditions: rhesus monkey, time < 70 min
# [22] = system: Streptococcus pyogenes; assay: Antibacterial activity against Streptococcus pyogenes infected in Galleria mellonella larvae infection model assessed as increase in number of surviving larvae at 1 mg/kg pre-infected with bacteria for 1 hr followed by compound addition measured every 12 hrs for 3 days; assay type: functional, organism-based; conditions: time 3.0 day
# [23] = system: Enterococcus faecium; assay: Antibacterial activity against glycopeptide-resistant Enterococcus faecium vanB type assessed as reduction in bacterial growth incubated for 24 hrs by broth microdilution method; assay type: functional
# [24] = system: Staphylococcus aureus; assay: Antibacterial activity against community associated methicillin-resistant Staphylococcus aureus USA300 assessed as reduction in bacterial growth incubated for 24 hrs by broth microdilution method; assay type: functional
# [25] = Metabolic stability in rat liver microsomes assessed as metabolic bioavailability at 0.1 uM preincubated for 10 mins followed by NADPH addition and measured upto 60 mins by LC-MS/MS analysis; assay type: ADME, Microsome; conditions: time < 70 min
# [26] = system: NCI-H1975; assay: Cytotoxicity against human NCI-H1975 cells measured after 72 hrs by SRB assay; assay type: functional, cell-based; conditions: NCI-H1975, 72 h
# [27] = system: Streptococcus pyogenes; assay: Antibacterial activity against Streptococcus pyogenes infected in Galleria mellonella larvae infection model assessed as prolongation of median survival time at 1 mg/kg pre-infected with bacteria for 1 hr followed by compound addition measured every 12 hrs for 3 days (reference value: 24 hrs); assay type: functional; conditions: time 3 day
# [28] = Toxicity in Galleria mellonella larvae assessed as reduction in animal survival […]; assay type: organism-based; conditions: in vivo, 80 h
compound,measurement,setting,value
Oc1c(Br)cc(Br)cc1-c1csc(-c2cc(C(F)(F)F)n[nH]2)n1,MIC,[1],4 µg/mL
same,Activity,[2],>60%
same,Activity,[3],Active
same,Activity,[4],>60%
same,MIC,[5],> 256 µg/mL
same,MIC,[6],4 µg/mL
same,MIC,[7],> 256 µg/mL
same,Activity,[8],Active
same,Activity,[9],>60%
same,Activity,[10],Active
same,MIC,[11],2 µg/mL
same,MIC,[12],> 256 µg/mL
Cc1cc(Cl)c(O)c(-c2csc(-c3cc(Cl)c(Cl)[nH]3)n2)c1,MIC,[1],> 256 µg/mL
same,MIC,[6],> 256 µg/mL
same,MIC,[11],> 256 µg/mL
O=[N+]([O-])c1cc(-c2nc(-c3cc(C(F)(F)F)cc(Br)c3O)cs2)[nH]n1,MIC,[1],4 µg/mL
same,MIC,[6],> 256 µg/mL
same,MIC,[11],8 µg/mL
COc1ccc(O)c(-c2csc(-c3cc(Cl)c(Cl)[nH]3)n2)c1,MIC,[1],> 256 µg/mL
same,MIC,[6],> 256 µg/mL
same,MIC,[11],> 256 µg/mL
Oc1c(F)cc(F)cc1-c1csc(-c2[nH]c(Br)c(Br)c2Br)n1,MIC,[1],> 256 µg/mL
same,MIC,[6],> 256 µg/mL
same,MIC,[11],> 256 µg/mL
Oc1ccc(C(F)(F)F)cc1-c1csc(-c2cc(Cl)c(Cl)[nH]2)n1,MIC,[1],4 µg/mL
same,MIC,[6],> 256 µg/mL
same,MIC,[11],4 µg/mL
Oc1c(Br)cc(C(F)(F)F)cc1-c1csc(-c2cc(Cl)c(Cl)[nH]2)n1,MIC,[1],≤ 0.125 µg/mL
same,MIC,[6],> 256 µg/mL
same,MIC,[11],1 µg/mL
COc1c(Cl)cc(Cl)cc1-c1csc(-c2[nH]c(Br)c(Br)c2Br)n1,MIC,[1],> 256 µg/mL
same,MIC,[6],> 256 µg/mL
same,MIC,[11],> 256 µg/mL
Oc1ccccc1-c1csc(-c2cc(Cl)c(Cl)[nH]2)n1,MIC,[1],> 256 µg/mL
same,MIC,[6],> 256 µg/mL
same,MIC,[11],> 256 µg/mL
Oc1c(Cl)cc(Cl)cc1-c1csc(-c2cc(C(F)(F)F)n[nH]2)n1,MIC,[1],4 µg/mL
same,Activity,[2],>60%
same,Activity,[3],Active
same,Activity,[4],>60%
same,MIC,[5],> 256 µg/mL
same,MIC,[6],4 µg/mL
same,MIC,[7],> 256 µg/mL
same,Activity,[8],Active
same,Activity,[9],>60%
same,Activity,[10],Active
same,MIC,[11],4 µg/mL
same,MIC,[12],> 256 µg/mL
O=[N+]([O-])c1ccc(O)c(-c2csc(-c3cc(Cl)c(Cl)[nH]3)n2)c1,MIC,[1],32 µg/mL
same,MIC,[6],> 256 µg/mL
same,MIC,[11],> 256 µg/mL
Oc1c(Br)cc(C(F)(F)F)cc1-c1csc(-c2[nH]c(Br)c(Br)c2Br)n1,MIC,[1],≤ 0.125 µg/mL
same,MIC,[13],16 µg/mL
same,Activity,[2],>60%
same,MIC,[14],≤ 0.125 µg/mL
same,Activity,[4],>60%
same,MIC,[5],> 256 µg/mL
same,MIC,[15],≤ 0.125 µg/mL
same,IC50,[16],8.25 µg/mL
same,MIC,[6],≤ 0.125 µg/mL
same,MIC,[7],> 256 µg/mL
same,Activity,[17],Non-Toxic
same,Activity,[8],Active
same,"Fh at 1 h, 0.1 µM",[18],43.3%
same,"Fh at 1 h, 0.1 µM",[19],2.26%
same,"Fh at 1 h, 0.1 µM",[20],18.4%
same,"Fh at 1 h, 0.1 µM",[21],36.9%
same,Activity,[9],>60%
same,Activity,[10],Active
same,Activity,[22],Active
same,MIC,[23],0.5 µg/mL
same,MIC,[11],2 µg/mL
same,MIC,[24],16 µg/mL
same,"Fh at 1 h, 0.1 µM",[25],65.7%
same,IC50,[26],4.4 µg/mL
same,MST,[27],36 h
same,MIC,[12],> 256 µg/mL
Oc1c(F)cc(F)cc1-c1csc(-c2cc(Cl)c(Cl)[nH]2)n1,MIC,[1],> 256 µg/mL
same,MIC,[6],> 256 µg/mL
same,MIC,[11],> 256 µg/mL
O=[N+]([O-])c1cc(-c2nc(-c3cc(Cl)cc(Cl)c3O)cs2)[nH]n1,MIC,[1],8 µg/mL
same,MIC,[6],> 256 µg/mL
same,MIC,[11],128 µg/mL
O=C(c1cc(Cl)c(Cl)[nH]1)c1cc(Cl)cc(Cl)c1O,MIC,[1],≤ 0.125 µg/mL
same,IC50,[16],0.82 µg/mL
same,MIC,[6],0.5 µg/mL
same,MIC,[11],≤ 0.125 µg/mL
same,IC50,[26],0.59 µg/mL
same,Activity,[28],Toxic
Oc1c(Br)cc(Br)cc1-c1csc(-c2cc(Br)c(Br)[nH]2)n1,MIC,[1],2 µg/mL
same,MIC,[6],> 256 µg/mL
same,MIC,[11],> 256 µg/mL
CN[C@H](CC(C)C)C(=O)N[C@H]1C(=O)N[C@@H](CC(N)=O)C(=O)N[C@H]2C(=O)N[C@H]3C(=O)N[C@H](C(=O)N[C@H](C(=O)O)c4cc(O)cc(O)c4-c4cc3ccc4O)[C@H](O)c3ccc(c(Cl)c3)Oc3cc2cc(c3O[C@@H]2O[C@H](CO)[C@@H](O)[C@H](O)[C@H]2O[C@H]2C[C@](C)(N)[C@H](O)[C@H](C)O2)Oc2ccc(cc2Cl)[C@H]1O [VANCOMYCIN],MIC,[1],0.25 µg/mL
same,Activity,[2],inactive
same,MIC,[14],> 256 µg/mL
same,Activity,[4],inactive
same,MIC,[15],> 256 µg/mL
same,MIC,[6],16 µg/mL
same,Activity,[9],inactive
same,MIC,[11],8 µg/mL
FC(F)(F)c1cc(Br)cc(-c2csc(-c3[nH]c(Br)c(Br)c3Br)n2)c1,MIC,[1],16 µg/mL
same,MIC,[6],32 µg/mL
same,MIC,[11],16 µg/mL
Oc1c(Br)cc(C(F)(F)F)cc1-c1csc(-c2cc(Br)c(Br)[nH]2)n1,MIC,[1],0.5 µg/mL
same,MIC,[6],2 µg/mL
same,MIC,[11],1 µg/mL
POLYMYXIN B,Activity,[2],inactive
same,Activity,[4],inactive
same,MIC,[5],4 µg/mL
same,MIC,[7],2 µg/mL
same,Activity,[9],inactive
same,MIC,[12],2 µg/mL
Oc1c(Cl)cc(Cl)cc1-c1csc(-c2cc(Cl)c(Cl)[nH]2)n1,MIC,[1],> 256 µg/mL
same,MIC,[6],> 256 µg/mL
same,MIC,[11],> 256 µg/mL
O=[N+]([O-])c1cc(-c2nc(-c3cc(Br)cc(Br)c3O)cs2)[nH]n1,MIC,[1],2 µg/mL
same,Activity,[2],>60%
same,Activity,[3],Active
same,Activity,[4],>60%
same,MIC,[5],> 256 µg/mL
same,MIC,[6],16 µg/mL
same,MIC,[7],> 256 µg/mL
same,Activity,[8],Active
same,Activity,[9],>60%
same,Activity,[10],Active
same,MIC,[11],8 µg/mL
same,MIC,[12],> 256 µg/mL
Oc1c(Br)cc(C(F)(F)F)cc1-c1csc(-c2cc(C(F)(F)F)n[nH]2)n1,MIC,[1],16 µg/mL
same,MIC,[6],8 µg/mL
same,MIC,[11],8 µg/mL
Oc1c(Cl)cc(Cl)cc1-c1csc(-c2[nH]c(Br)c(Br)c2Br)n1,MIC,[1],0.25 µg/mL
same,MIC,[5],> 256 µg/mL
same,MIC,[6],0.5 µg/mL
same,MIC,[7],> 256 µg/mL
same,MIC,[11],> 256 µg/mL
same,MIC,[12],> 256 µg/mL
Oc1c(Br)cc(Br)cc1-c1csc(-c2cc(Cl)c(Cl)[nH]2)n1,MIC,[1],> 256 µg/mL
same,MIC,[6],> 256 µg/mL
same,MIC,[11],> 256 µg/mL
